# Laboratory results: patent publication US8193191B2, “Urotensin II receptor antagonists” (Janssen Pharmaceutica N.V., priority 2006, dated 2012)
# Read-outs that look alike come from different tables or passages of the source.
# What was measured:
# [1] = molecular target: T1, rat GPR14 (U-II receptor) (Rattus norvegicus, UniProt P49684); experiment: Rat UII Calcium Mobilization FLIPR Assay; type: cell-based; details: average value for the compound tested; read-out: Rat UII FLIPR Average IC50
# T1 construct: expressed in transfected cells
# T1 sequence (P49684 1-386): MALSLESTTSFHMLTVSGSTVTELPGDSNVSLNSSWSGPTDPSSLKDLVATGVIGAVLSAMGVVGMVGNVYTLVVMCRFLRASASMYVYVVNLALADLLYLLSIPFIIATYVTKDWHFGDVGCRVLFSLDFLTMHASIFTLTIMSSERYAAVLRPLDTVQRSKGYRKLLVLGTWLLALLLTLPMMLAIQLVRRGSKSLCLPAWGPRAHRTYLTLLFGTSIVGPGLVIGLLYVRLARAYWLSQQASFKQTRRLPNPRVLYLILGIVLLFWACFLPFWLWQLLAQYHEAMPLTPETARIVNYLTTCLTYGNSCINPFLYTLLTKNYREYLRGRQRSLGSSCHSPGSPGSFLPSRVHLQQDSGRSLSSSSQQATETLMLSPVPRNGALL
# In short: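 Fluorescent calcium signals were recorded at room temperature (23° C) by FLIPR. Stable rat U-II receptor CHO lines had been dye-loaded for 1 h at 37° C in pH 7.4 HBSS containing 20 mM HEPES, 0.1% BSA and 2.5 mM probenecid.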
# [2] = molecular target: T2, Human UII receptor, 6D9 human rhabdomyosarcoma cells (Homo sapiens, UniProt Q9UKP6); experiment: Human UII Calcium Mobilization Assay; type: cell-based; details: average value, FLIPR TETRA, read-out: Human UII Ca^+ Mobilization Average IC50
# T2 construct: 6D9: isolated by dilution subcloning of RMS13 cells, ATCC® Number: CRL-2061; host or cells: 6D9 human rhabdomyosarcoma cells (subclone of RMS13)
# T2 sequence (Q9UKP6 1-389): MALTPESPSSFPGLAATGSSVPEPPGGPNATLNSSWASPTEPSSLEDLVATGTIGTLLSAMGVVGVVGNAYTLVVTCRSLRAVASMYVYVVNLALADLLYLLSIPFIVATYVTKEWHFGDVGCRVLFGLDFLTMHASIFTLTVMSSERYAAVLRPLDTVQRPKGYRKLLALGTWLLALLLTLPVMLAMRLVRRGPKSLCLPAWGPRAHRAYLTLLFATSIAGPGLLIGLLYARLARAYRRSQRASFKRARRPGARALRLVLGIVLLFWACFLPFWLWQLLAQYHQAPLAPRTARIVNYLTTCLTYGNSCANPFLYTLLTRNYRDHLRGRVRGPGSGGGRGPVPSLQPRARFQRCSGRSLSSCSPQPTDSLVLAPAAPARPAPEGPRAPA
# In short: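 FLIPR calcium responses were recorded for 4 minutes after room-temperature addition of test antagonist and U-II, in dye-loaded human 6D9 cells (37° C, 45 min; HBSS/HEPES with probenecid 1.25 mM). Compounds serially diluted in HBSS/HEPES, up to 0.1% DMSO; curves gave IC50 and EC50.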
# [3] = molecular target: T3, endogenous human UII receptor (Homo sapiens, UniProt Q9UKP6); experiment: Human Radioligand Binding Assay ((^125I)-U-II binding to human skeletal muscle myoblasts)
# T3 sequence (Q9UKP6 1-389): T2 sequence (Q9UKP6 1-389)
# [4] = read-out: Human UII Average Binding Ki, average value, (^125I)-U-II binding to human skeletal muscle myoblasts (HSMM), 25° C., 3 h
SMILES,IC50 [1] [nM],IC50 [2] [nM],Ki [3] [nM],"Ki [3, 4] [nM]"
"COC(=O)c1ccc(S(=O)(=O)NCCCC(c2ccc(OC)c(OC)c2)N2C(=O)c3cccc(N4CCN([C@H](C)c5ccccc5)CC4)c3C2=O)o1 (stereo partly drawn) [Cpd 90, 5-(4-(3,4-dimethoxy-phenyl)-4-{1,3-dioxo-4-[4-(1R)-(1-phenyl-ethyl)-piperazin-1-yl]-1,3-dihydro-isoindol-2-yl}-butylsulfamoyl)-furan-2-carboxylic acid methyl ester]",130,560,320,–
"COc1ccc(CC(c2ccc(OC)c(OC)c2)N2C(=O)c3cccc(N4CCN([C@H](C)c5ccccc5)CC4)c3C2=O)cc1OC (stereo partly drawn) [Cpd 123, 2-[1,2-bis-(3,4-dimethoxy-phenyl)-ethyl]-4-[4-(1R)-(1-phenyl-ethyl)-piperazin-1-yl]-isoindole-1,3-dione]",250,3100,570,–
"COc1ccc([C@@H](CCCNC(=O)C2CCC2)N2C(=O)c3cccc(N4CCN([C@H](C)c5ccccc5)CC4)c3C2=O)cc1OC [Cpd 178, (R)-cyclobutanecarboxylic acid (4-(3,4-dimethoxy-phenyl)-4-{1,3-dioxo-4-[4-(1R)-(1-phenyl-ethyl)-piperazin-1-yl]-1,3-dihydro-isoindol-2-yl}-butyl)-amide]",13,560,22,–
"COc1ccc(C(CCCNS(=O)(=O)c2cnoc2C)N2C(=O)c3cccc(N4CCN([C@H](C)c5ccccc5)CC4)c3C2=O)cc1OC (stereo partly drawn) [Cpd 108, 5-methyl-isoxazole-4-sulfonic acid (4-(3,4-dimethoxy-phenyl)-4-{1,3-dioxo-4-[4-(1R)-(1-phenyl-ethyl)-piperazin-1-yl]-1,3-dihydro-isoindol-2-yl}-butyl)-amide]",14,46,31,–
"COc1ccc(C(CCCNS(=O)(=O)c2c(C)nn(C)c2C)N2C(=O)c3cccc(N4CCN([C@H](C)c5ccccc5)CC4)c3C2=O)cc1OC (stereo partly drawn) [Cpd 91, 1,3,5-trimethyl-1H-pyrazole-4-sulfonic acid (4-(3,4-dimethoxy-phenyl)-4-{1,3-dioxo-4-[4-(1R)-(1-phenyl-ethyl)-piperazin-1-yl]-1,3-dihydro-isoindol-2-yl}-butyl)-amide]",15,310,150,–
"COc1ccc([C@@H](CCCNC(=O)COC(C)(C)C)N2C(=O)c3cccc(N4CCN([C@H](C)c5ccccc5)CC4)c3C2=O)cc1OC [Cpd 213, (R)-2-tert-butoxy-N-(4-(3,4-dimethoxy-phenyl)-4-{1,3-dioxo-4-[4-(1R)-(1-phenyl-ethyl)-piperazin-1-yl]-1,3-dihydro-isoindol-2-yl}-butyl)-acetamide]",17,730,54,–
"COc1ccc(C(CCCNS(=O)(=O)CS(C)(=O)=O)N2C(=O)c3cccc(N4CCN([C@H](C)c5ccccc5)CC4)c3C2=O)cc1OC (stereo partly drawn) [Cpd 110, N-(4-(3,4-dimethoxy-phenyl)-4-{1,3-dioxo-4-[4-(1R)-(1-phenyl-ethyl)-piperazin-1-yl]-1,3-dihydro-isoindol-2-yl}-butyl)-C-methanesulfonyl-methanesulfonamide]",19,250,25,–
"COc1ccc([C@@H](CCCNS(=O)(=O)c2cccs2)N2C(=O)c3cccc(N4CCN(C(C)C)CC4)c3C2=O)cc1OC [Cpd 198, (R)-thiophene-2-sulfonic acid {4-(3,4-dimethoxy-phenyl)-4-[4-(4-isopropyl-piperazin-1-yl)-1,3-dioxo-1,3-dihydro-isoindol-2-yl]-butyl}-amide]",3.5,150,–,45
"COc1ccc([C@@H](CCCNC(=O)[C@H]2CCCN2C(C)=O)N2C(=O)c3cccc(N4CCN([C@H](C)c5ccccc5)CC4)c3C2=O)cc1OC [Cpd 149, (R)-1-acetyl-pyrrolidine-2-carboxylic acid (R)-(4-(3,4-dimethoxy-phenyl)-4-{1,3-dioxo-4-[4-(1R)-(1-phenyl-ethyl)-piperazin-1-yl]-1,3-dihydro-isoindol-2-yl}-butyl)-amide]",15,760,71,–
"CCN1CCN(c2cccc3c2C(=O)N(C(CC2CCN(S(=O)(=O)c4cccs4)CC2)c2ccc(OC)c(OC)c2)C3=O)CC1 (stereo not drawn) [Cpd 234, 2-{1-(3,4-dimethoxy-phenyl)-2-[1-(thiophene-2-sulfonyl)-piperidin-4-yl]-ethyl}-4-(4-ethyl-piperazin-1-yl)-isoindole-1,3-dione]",51,1700,280,–
"COC(=O)c1csc(S(=O)(=O)NCCCC(c2ccc(OC)c(OC)c2)N2C(=O)c3cccc(N4CCN([C@H](C)c5ccccc5)CC4)c3C2=O)c1OC (stereo partly drawn) [Cpd 88, 5-(4-(3,4-dimethoxy-phenyl)-4-{1,3-dioxo-4-[4-(1R)-(1-phenyl-ethyl)-piperazin-1-yl]-1,3-dihydro-isoindol-2-yl}-butylsulfamoyl)-4-methoxy-thiophene-3-carboxylic acid methyl ester]",320,> 3000,350,–
"COc1ccc([C@@H](CCCNS(=O)(=O)c2sc(C)nc2C)N2C(=O)c3cccc(N4CCN([C@H](C)c5ccccc5)CC4)c3C2=O)cc1OC [Cpd 124, (R)-2,4-dimethyl-thiazole-5-sulfonic acid (4-(3,4-dimethoxy-phenyl)-4-{1,3-dioxo-4-[4-(1R)-(1-phenyl-ethyl)-piperazin-1-yl]-1,3-dihydro-isoindol-2-yl}-butyl)-amide]",28,300,320,–
COc1ccc([C@H](CCCNS(=O)(=O)c2cccs2)N2C(=O)c3cccc(N4CCN([C@H](C)c5ccccc5)CC4)c3C2=O)cc1OC [Cpd 119],69,260,–,120

# The remaining molecules from weak to strong by IC50 [1], led by results:
IC50 [1] [nM],IC50 [2] [nM],Ki [3] [nM],SMILES,"Ki [3, 4] [nM]"
13,1200,84,"COc1ccc([C@@H](CCCNC(=O)c2ccncc2)N2C(=O)c3cccc(N4CCN([C@H](C)c5ccccc5)CC4)c3C2=O)cc1OC [Cpd 154, (R)-N-(4-(3,4-dimethoxy-phenyl)-4-{1,3-dioxo-4-[4-(1R)-(1-phenyl-ethyl)-piperazin-1-yl]-1,3-dihydro-isoindol-2-yl}-butyl)-isonicotinamide]",–
12,240,120,"COc1ccc([C@@H](CCNS(=O)(=O)c2c(C)n[nH]c2C)N2C(=O)c3cccc(N4CCN([C@H](C)c5ccccc5)CC4)c3C2=O)cc1OC [Cpd 223, (R)-3,5-dimethyl-1H-pyrazole-4-sulfonic acid (3-(3,4-dimethoxy-phenyl)-3-{1,3-dioxo-4-[4-(1R)-(1-phenyl-ethyl)-piperazin-1-yl]-1,3-dihydro-isoindol-2-yl}-propyl)-amide]",–
8.9,280,110,"COc1ccc([C@@H](CCCNS(=O)(=O)c2cn(C)nc2C)N2C(=O)c3cccc(N4CCN([C@H](C)c5ccccc5)CC4)c3C2=O)cc1OC [Cpd 128, (R)-1,3-dimethyl-1H-pyrazole-4-sulfonic acid (4-(3,4-dimethoxy-phenyl)-4-{1,3-dioxo-4-[4-(1R)-(1-phenyl-ethyl)-piperazin-1-yl]-1,3-dihydro-isoindol-2-yl}-butyl)-amide]",–
7.9,520,86,"COc1ccc([C@@H](CCCNS(=O)(=O)c2cccs2)N2C(=O)c3cccc(N4CCN(C5CCCC5)CC4)c3C2=O)cc1OC [Cpd 193, (R)-thiophene-2-sulfonic acid [4-[4-(4-cyclopentyl-piperazin-1-yl)-1,3-dioxo-1,3-dihydro-isoindol-2-yl]-4-(3,4-dimethoxy-phenyl)-butyl]-amide]",–
6.2,360,61,"COc1ccc([C@@H](CCCNS(=O)(=O)c2cnn(C)c2)N2C(=O)c3cccc(N4CCN([C@H](C)c5ccccc5)CC4)c3C2=O)cc1OC [Cpd 136, (R)-1-methyl-1H-pyrazole-4-sulfonic acid (4-(3,4-dimethoxy-phenyl)-4-{1,3-dioxo-4-[4-(1R)-(1-phenyl-ethyl)-piperazin-1-yl]-1,3-dihydro-isoindol-2-yl}-butyl)-amide]",–
